Results as given in article PMC4104029, “Mechanism of Action of Compound-13: An α1-Selective Small Molecule Activator of AMPK” (Chemistry & Biology, 2014).
Like-named read-outs stand apart in the source and are kept apart here.

Columns and labels:
human AMPK = system: human AMPK; set-up: method as in Gómez-Galeno et al., 2010; conditions: isoform combination not specified; ref Gómez-Galeno et al., 2010; read-out: half-maximal effective concentration (EC50); cited from earlier work
[1] = system: primary mouse hepatocytes (WT); experiment: Lipid synthesis, [1-14C]acetate incorporation; format: cell-based; conditions: for IC50: Mus musculus, Hepatocyte
Description: Figure 5 C13 Inhibits Lipid Synthesis and Fatty Acid Esterification in Mouse Hepatocytes in an AMPK-Dependent Manner (A) Mouse hepatocytes were treated with the indicated concentrations of C13 and labeled with [1-^14C]acetate for 3 hr. A769662 (100 μM) and AICAR (0.5 mM) were included as positive controls. Rates of fatty acid and sterol synthesis were estimated by incorporation into saponifiable and nonsaponifiable lipids. Results are expressed as the mean acetate incorporated in micromoles per gram-hour ± SD and are representative of two independent experiments. (B) Mouse hepatocytes were treated with the indicated compounds for 30 min and labeled with media containing 0.5 mM palmitic acid (1 mCi⋅mmol^−1 [9,10-^3H]palmitic acid) for an additional 60 min. Incorporation into triglyceride was determined as described in Experimental Procedures and results are expressed as palmitate incorporated in micromoles per gram-hour ± SD and are representative of three independent experiments. (C and D) Mouse hepatocytes from WT or AMPK-null (AMPKα1^−/− -α2^−/−) mice were incubated with the indicated concentrations of C13 and labeled with [1-^14C]acetate for 3 hr. Rates of fatty acid and sterol synthesis were estimated from incorporation into saponifiable (C) and nonsaponifiable (D) lipids. Results are expressed as percentage WT vehicle and represent the mean ± SD for three independent experiments. (E) Hepatocytes were treated with the indicated concentrations of C13 for 3 hr, and lysates were blotted with the indicated antibodies.
(§1) Lipid synthesis was determined by labeling adherent cultures of primary hepatocytes with [1-^14C]acetate. After overnight culture, hepatocytes (5 × 10^5) were washed with warm PBS and allowed to rest for 3 hr in fresh M199. Cells were treated with vehicle (0.1% DMSO) or the indicated compounds and labeled with 1 mCi⋅mmol^−1 [1-^14C]acetate for 3 hr. Cells were washed with ice-cold PBS, gently scraped into 0.5 ml PBS and saponified in methanolic KOH at 80°C for 1 hr. Nonsaponifiable and saponifiable lipids were extracted with petroleum ether before and after acidification with HCl. Lipid fractions were washed with 5% HAc, dried using N2, and dissolved in scintillant for the determination of [^14C] incorporation. Lipogenesis in hepatocytes from AMPKβ1/β2-KO mice was determined in media containing [^3H]acetate (0.2 mCi⋅mmol^−1). After 4 hr labeling, total lipids were extracted using the method of [Bligh and Dyer (1959)], and incorporated [^3H] was determined by scintillation counting. The results are expressed as micromoles acetate incorporated per gram-hour.

β1-KO hepatocytes = experiment: AMPK signaling, western blotting; format: cell-based, mouse; conditions: 1 hr; A769662 100 μM
Description: (§2) Figure 7 C13 Activates Both β1 and β2 Complexes in Mouse Hepatocytes (A) Hepatocytes from WT, AMPKβ1^−/−, and AMPKβ2^−/− mice were incubated with the indicated concentrations of C13 for 1 hr. A769662 (100 μM) was included as a positive control. Lysates were analyzed using western blotting with the indicated antibodies. (B) Mouse hepatocytes from the indicated genotypes were treated with the indicated concentrations of C13 and labeled with [^3H]acetate for 4 hr. Lipogenesis was estimated from the incorporation of acetate into total lipids. Results are expressed as the mean acetate incorporated in micromoles per gram-hour ± SD.

WT and β2-KO hepatocytes = experiment: AMPK signaling, western blotting; format: cell-based, mouse; conditions: 1 hr; A769662 100 μM
Description: as §2

α1-KO hepatocytes = experiment: Lipid synthesis, [1-14C]acetate incorporation; format: cell-based, mouse; conditions: 1 μM
Description: Figure 6 C13 Is Relatively Selective for α1 Complexes in Primary Hepatocytes (A) Hepatocytes from WT, AMPKα1^−/−, and AMPKα2^−/− mice were treated with the indicated concentrations of C13 and labeled with [1-^14C]acetate for 3 hr. Rates of fatty acid and sterol synthesis were estimated from incorporation into saponifiable (upper graphs) and nonsaponifiable (lower graphs) lipids. Results are expressed as percentage WT vehicle and represent the mean ± SD for three independent experiments. (B) Mouse hepatocytes were incubated with the indicated concentrations of C13 for 3 hr, and lysates were analyzed using western blotting with the indicated antibodies.
as §1, with “Cells were washed with ice-cold PBS, gently scraped into 0.5 ml PBS and saponified in methanolic KOH at 80°C for 1 hr. Nonsaponifiable and saponifiable lipids were extracted with petroleum ether before and after acidification with HCl. Lipid fractions were washed with 5% HAc, dried using N2, and dissolved in scintillant for the determination of [^14C] incorporation.” left out

[2] = system: AMPK-KO (AMPKα1−/− -α2−/−) hepatocytes; experiment: Lipid synthesis, [1-14C]acetate incorporation; format: cell-based, mouse
Description: Figure 5 C13 Inhibits Lipid Synthesis and Fatty Acid Esterification in Mouse Hepatocytes in an AMPK-Dependent Manner (A) Mouse hepatocytes were treated with the indicated concentrations of C13 and labeled with [1-^14C]acetate for 3 hr. A769662 (100 μM) and AICAR (0.5 mM) were included as positive controls. Rates of fatty acid and sterol synthesis were estimated by incorporation into saponifiable and nonsaponifiable lipids. Results are expressed as the mean acetate incorporated in micromoles per gram-hour ± SD and are representative of two independent experiments. […] Incorporation into triglyceride was determined as described in Experimental Procedures and results are expressed as palmitate incorporated in micromoles per gram-hour ± SD and are representative of three independent experiments. […] Results are expressed as percentage WT vehicle and represent the mean ± SD for three independent experiments. […]
Lipid synthesis was determined by labeling adherent cultures of primary hepatocytes with [1-^14C]acetate. […] Lipogenesis in hepatocytes from AMPKβ1/β2-KO mice was determined in media containing [^3H]acetate (0.2 mCi⋅mmol^−1). After 4 hr labeling, total lipids were extracted using the method of [Bligh and Dyer (1959)], and incorporated [^3H] was determined by scintillation counting. The results are expressed as micromoles acetate incorporated per gram-hour.

mouse hepatocytes = experiment: Adenine nucleotide ratios by capillary electrophoresis; format: cell-based; conditions: 1 hr; C13 up to 100 μM
Description: Figure 4 The C2 Prodrug, C13, Potently Activates AMPK in Mouse Primary Hepatocytes (A) Isolated mouse hepatocytes were incubated with vehicle or the indicated concentrations of C13 for 1 hr. AICAR (0.5 mM) was included as a positive control. Cell lysates were analyzed using western blotting with the indicated antibodies. (B) AMPKα1 or AMPKα2 complexes were immunoprecipitated from hepatocyte extracts prepared as described in (A) and assayed for kinase activity using 0.2 mM AMARA and 0.1 mM ATP. Results are expressed as the mean Pi incorporated in picomoles per minute-milligram ± SD. (C) Hepatocytes were stimulated with 30 μM C13 for the indicated times prior to harvesting, with AICAR (0.5 mM, 1 hr) as positive control. Lysates were analyzed using western blotting with the indicated antibodies. (D) Mouse hepatocytes were treated with the indicated compounds for 1 hr, and adenine nucleotide ratios were determined using capillary electrophoresis of perchloric acid extracts. (E) Mouse hepatocytes were preincubated with 30 μM STO-609 for 30 min prior to stimulation with 30 μM C13 for 1 hr or with 1 μM ionomycin for 30 min. Lysates were analyzed using western blotting with the indicated antibodies. (F) Wild-type (LKB1^+/+) or LKB1-null (LKB1^−/−) mouse embryonic fibroblasts were incubated with the indicated concentrations of C13 for 1 hr. AICAR (2 mM) was included as a positive control. Lysates were analyzed using western blotting with the indicated antibodies. Results are representative of three independent experiments. […]
Isolation of primary hepatocytes. Hepatocytes were isolated from fasted mice by collagenase digestion (Berry and Friend, 1969). Cells were seeded in M199 containing 100 U/ml penicillin G, 100 µg/ml streptomycin, 0.1 % (w/v) BSA, 10 % (v/v) FBS, 10 nM insulin, 200 nM triiodothyronine and 100 nM dexamethasone. […]
Nucleotide measurements. […] Nucleotides were separated and quantified by capillary electrophoresis using a Beckman P/ACE instrument as previously described (Hawley, et al., 2010).

whole-body lipogenesis = conditions: among a series of prodrugs; ref Gómez-Galeno et al., 2010; cited from earlier work

Row | Structure (SMILES) | EC50 (human AMPK) | reduction of lipid synthesis ([1]; 1 μM, WT cells) | IC50 ([1]; [14C]acetate, 3 hr, read-out: IC50, inhibition of lipid synthesis, nonsaponifiable lipids) | IC50 ([1]; [14C]acetate, 3 hr, read-out: IC50, inhibition of lipid synthesis, saponifiable lipids) | concentration of maximal effect on lipid synthesis ([1]; [14C]acetate, 3 hr) | potency relative to A769662 ([1]; similar inhibition with 3 μM C13 and 100 μM A769662) | stimulation of AMPK (Thr172 phosphorylation) (β1-KO hepatocytes) | phosphorylation of Thr172 and ACC, as well as Raptor (WT and β2-KO hepatocytes) | effect on synthesis of saponifiable and nonsaponifiable lipids (α1-KO hepatocytes) | anti-lipogenic effect [2] | impairment of lipogenesis ([2]; highest concentrations of C13) | ADP:ATP and AMP:ATP ratios (mouse hepatocytes) | inhibition of whole-body lipogenesis (whole-body lipogenesis)
1 | O=P(O)(O)c1ccc(-c2cc(O)on2)o1 [Compound C2, 5-(5-hydroxyl-isoxazol-3-yl)-furan-2-phosphonic acid] | 0.0063 µM | – | – | – | – | – | – | – | – | – | – | – | –
2 | CC(C)C(=O)OCOP(=O)(OCOC(=O)C(C)C)c1ccc(C2=NOC(=O)C2)o1 [Compound C13] | – | about 40% | 1.5 µM | 1.7 µM | 30 µM | ≈ 30 fold | modestly stimulated | robustly stimulated | no effect | resistant | ≈ 20% | no detectable changes | most potent inhibition
